Laboratory results taken from US12655150B2 (Cedilla Therapeutics, Inc., priority 2021, dated 2026).

System: NCI-H226
Assay: 72H TEAD Proliferation Assay (Cell Titer Glo 2.0)
Format: cell-based
Details: Homo sapiens, NCI-H226, 72 h, CTG 2.0, cell line not given (NCI-H226 responsive, NCI-H28 non-responsive)
Method: 72H TEAD Proliferation Assay.
The effect of TEAD inhibition on cell proliferation was assayed using Cell Titer Glo (CTG) 2.0 to measure response in mesothelioma cell lines NCI-H226 (ATCC, #CRL-5826) and NCI-H28 (ATCC, #CRL-5820).
The 72H TEAD Proliferation assay utilizes Cell Titer-Glo 2.0 (Promega, #G9243) to measure the proliferation of cells in the presence or absence of compound. Cell Titer-Glo 2.0 determines the amount of viable cells by quantifying ATP (an indication of metabolically active cells). It utilizes the conversion of Luciferin to Oxyluciferin and a luminescent signal with the use of ATP to report the quantity of viable cells in culture. Within cells that are continually growing, ATP is being synthesized to meet their metabolic demands, meanwhile the opposite is true for cells that are dying or slowing down their proliferation and either no longer using ATP or are using less, respectively. The NF2-deficient NCI-H226 has been genetically validated as a cell line that is sensitive to TEAD inhibition. The NF2-wild type NCI-H28 has been genetically validated as a cell line that is not sensitive to TEAD inhibition and grows independently of TEAD activity.
Compounds were screened against the responsive NCI-H226 cell line to assess the compounds' ability to inhibit TEAD and cell growth. Compounds were also screened against the non-responsive NCI-H28 cell line to ascertain whether the inhibition of cell growth was due to inhibition of the target TEAD or whether the inhibition was due to off-target cytotoxicity.
• 1) Assay ready plates (ARPs) were prepared by Echo acoustic liquid handler. […] After CTG addition, plates were placed on shaker at 800 RPM for 15 minutes at room temperature and kept in the dark. Luminescence was measured using EnVision multilabel plate reader with ultra-sensitive detection module. • 9) Data Analysis: First background luminescence (no CTG wells) was subtracted from luminescence reading of all wells, then TO luminescence was subtracted from T72 luminescence. To compare anti-proliferative effect of compounds, GI50 was obtained by fitting dose response curves with nonlinear regression curve fit.

Structure (SMILES)	GI50 [nM]
CC(C)(C)c1ccc(-c2nc(/C=C/C#N)cn3ccnc23)cc1 [I-154, (E)-3-(8-(4-(tert-Butyl)phenyl)imidazo[1,2-a]pyrazin-6-yl)acrylonitrile]	1000 to 5000
O=C(O)c1ccc2c(c1)nc(NCCC(F)(F)C(F)(F)F)c1cccn12 [I-121, 4-((3,3,4,4,4-Pentafluorobutyl)amino)pyrrolo[1,2-a]quinoxaline-7-carboxylic acid]	1000 to 5000
C=CC(=O)NCc1nc(-c2ccc(OC(F)(F)F)cc2)c2ccc(F)cc2n1 [I-447, N-((7-fluoro-4-(4-(trifluoromethoxy)phenyl)quinazolin-2-yl)methyl)acrylamide]	≤ 1000
O=C(O)c1ccc2c(c1)nc(NCCCC(F)(F)F)c1cccn12 [I-1, 4-((4,4,4-Trifluorobutyl)amino) pyrrolo[1,2-a]quinoxaline-7-carboxylic acid]	> 10000
O=C(O)c1ccc2c(c1)nc(N1CCC3(CCC3)C1)c1cccn12 [I-33, 4-(6-Azaspiro[3.4]octan-6-yl)pyrrolo[1,2-a]quinoxaline-7-carboxylic acid]	5000 to 10000
C=CC(=O)Nc1ccc2c(c1)nc(-c1ccc(C(C)(C)C)cc1)c1nccn12 [I-91, N-(4-(4-(tert-butyl)phenyl)imidazo[1,2-a]quinoxalin-7-yl)acrylamide]	≤ 1000
C=CC(=O)Nc1ccc2c(C(F)(F)F)cc(-c3ccc(C(C)(C)C)cc3)nc2c1 [I-112, N-(2-(4-(tert-Butyl)phenyl)-4-(trifluoromethyl)quinolin-7-yl)acrylamide]	1000 to 5000
CCOc1cc(-c2ccc(C(F)(F)F)cc2)nc2cc(C(=O)O)ccc12 [I-393, 4-ethoxy-2-(4-(trifluoromethyl)phenyl)quinoline-7-carboxylic acid]	≤ 1000
O=C(/C=C/CF)NCc1cn2ccnc2c(-c2ccc(C(F)(F)F)cc2)n1 [I-214, (E)-4-fluoro-N-((8-(4-(trifluoromethyl)phenyl)imidazo[1,2-a]pyrazin-6-yl)methyl)but-2-enamide]	≤ 1000
O=C(O)c1ccc2c(c1)nc(-c1ccc(F)cc1F)c1cccn12 [I-44, 4-(2,4-Difluorophenyl)pyrrolo[1,2-a]quinoxaline-7-carboxylic acid]	> 10000
C[C@@H](CO)NC(=O)c1ccc2c(OCC3CC3)cc(-c3ccc(C(F)(F)F)cc3)nc2c1 [I-374, (S)-4-(cyclopropylmethoxy)-N-(1-hydroxypropan-2-yl)-2-(4-(trifluoromethyl)phenyl)quinoline-7-carboxamide]	1000 to 5000
O=C(O)c1ccc2c(c1)nc(N1CCC(C(F)(F)F)CC1)c1cccn12 [I-38, 4-(4-(Trifluoromethyl)piperidin-1-yl)pyrrolo[1,2-a]quinoxaline-7-carboxylic acid]	> 10000
Cc1nc2ccc(C(=O)O)cc2nc1-c1ccc(C(F)(F)F)cc1 [I-422, 2-methyl-3-(4-(trifluoromethyl)phenyl)quinoxaline-6-carboxylic acid]	5000 to 10000
C=CC(=O)NCc1cn2c(C(F)(F)F)cnc2c(-c2ccc(C(F)(F)F)cc2)n1 [I-246, N-((3-(trifluoromethyl)-8-(4-(trifluoromethyl)phenyl)imidazo[1,2-a]pyrazin-6-yl)methyl)acrylamide]	≤ 1000
CC(C)(C)c1ccc(-c2nc(CCC(=O)O)cn3ccnc23)cc1 [I-153, 3-(8-(4-(tert-Butyl)phenyl)imidazo[1,2-a]pyrazin-6-yl)propanoic acid]	> 10000
O=C(O)c1ccc2c(c1)nc(N1CCC(F)(F)CC1)c1cccn12 [I-39, 4-(4,4-Difluoropiperidin-1-yl) pyrrolo[1,2-a]quinoxaline-7-carboxylic acid]	> 10000
CC[C@H](CO)NC(=O)c1ccc2c(OC)cc(-c3ccc(C(F)(F)F)cc3OC)nc2c1 [I-342, (R)—N-(1-hydroxybutan-2-yl)-4-methoxy-2-(2-methoxy-4-(trifluoromethyl)phenyl)quinoline-7-carboxamide]	1000 to 5000
CC(C)C12CC(Nc3nc4cc(C(=O)O)ccc4n4cccc34)(C1)C2 [I-22, 4-((3-Isopropylbicyclo[1.1.1]pentan-1-yl)amino)pyrrolo[1,2-a]quinoxaline-7-carboxylic acid]	1000 to 5000
CC(C)(C)c1ccc(-c2nc(C(=O)O)cn3cnnc23)cc1 [I-93, 8-(4-(tert-Butyl)phenyl)-[1,2,4]triazolo[4,3-a]pyrazine-6-carboxylic acid]	> 10000

Structure (SMILES)	GI50 [nM]
COCc1cc(-c2ccc(C(F)(F)F)cc2)nc2cc(C(=O)O)ccc12 [I-270, 4-(methoxymethyl)-2-(4-(trifluoromethyl)phenyl)quinoline-7-carboxylic acid]	≤ 1000
C=CC(=O)Nc1cn2cccc2c(-c2ccc(C3(C(F)(F)F)CC3)cc2)n1 [I-102, N-(1-(4-(1-(trifluoromethyl)cyclopropyl)phenyl)pyrrolo[1,2-a]pyrazin-3-yl)acrylamide]	≤ 1000
O=C(O)c1ccc2c(c1)nc(N1CCC3(CCCCC3)CC1)c1cccn12 [I-30, 4-(3-Azaspiro[5.5]undecan-3-yl)pyrrolo[1,2-a]quinoxaline-7-carboxylic acid]	1000 to 5000
COc1cccc([C@H](C)NC(=O)c2ccc3c(OC)cc(-c4ccc(C(F)(F)F)cc4)nc3c2)c1 [I-348, (S)-4-methoxy-N-(1-(3-methoxyphenyl)ethyl)-2-(4-(trifluoromethyl)phenyl)quinoline-7-carboxamide]	≤ 1000
C=CC(=O)NCc1cc2ccccc2c(-c2ccc(C(F)(F)F)nc2)n1 [I-302, N-((1-(6-(trifluoromethyl)pyridin-3-yl)isoquinolin-3-yl)methyl)acrylamide]	≤ 1000
COc1cc(-c2ccc(C(F)(F)F)cc2)nc2cc(-c3nnc(C)[nH]3)ccc12 [I-413, 4-methoxy-7-(5-methyl-4H-1,2,4-triazol-3-yl)-2-(4-(trifluoromethyl)phenyl)quinolone]	5000 to 10000
C=CC(=O)NCc1cn2cccc2c(-c2ccc(C(F)(F)F)cc2)n1 [I-319, N-((1-(4-(trifluoromethyl)phenyl)pyrrolo[1,2-a]pyrazin-3-yl)methyl)acrylamide]	≤ 1000
Cc1cc(-c2ccc(C(F)(F)F)cc2)nc2cc(C(=O)N[C@@H](C)COC(F)(F)F)ccc12 [I-264, (S)-4-methyl-N-(1-(trifluoromethoxy)propan-2-yl)-2-(4-(trifluoromethyl)phenyl)quinoline-7-carboxamide]	1000 to 5000
O=C(O)c1ccc2c(c1)nc(Oc1cccc(C(F)(F)F)c1)c1cccn12 [I-24, 4-(3-(Trifluoromethyl)phenoxy) pyrrolo[1,2-a] quinoxaline-7-carboxylic acid]	1000 to 5000
Cc1ccc(-c2nc3cc(C(=O)O)ccc3n3ccnc23)cc1 [I-66, 4-(p-Tolyl)imidazo[1,2-a]quinoxaline-7-carboxylic acid]	5000 to 10000
COc1cc(-c2ccc(C(F)(F)F)cc2)nc2cc(NC(=O)[C@@H](CO)c3ccccc3)ccc12 [I-376, (R)-3-Hydroxy-N-(4-methoxy-2-(4-(trifluoromethyl)phenyl)quinolin-7-yl)-2-phenylpropanamide]	1000 to 5000
CC(NC(=O)N1CCc2c(cccc2-c2ccc(C(F)(F)F)cc2)C1)c1ccccn1 (centres unmarked) [I-179, N-(1-(pyridin-2-yl)ethyl)-5-(4-(trifluoromethyl)phenyl)-3,4-dihydroisoquinoline-2(1H)-carboxamide]	≤ 1000
C=CC(=O)NCc1cn2ccnc2c(N(C)Cc2ccc(C(F)(F)F)cc2)n1 [I-300, N-((8-(methyl(4-(trifluoromethyl)benzyl)amino)imidazo[1,2-a]pyrazin-6-yl)methyl)acrylamide]	≤ 1000
C=CC(=O)Nc1ccc2c(c1)nc(-c1ccc(C(F)(F)F)cc1)c1cccn12 [I-120, N-(4-(4-(trifluoromethyl)phenyl)pyrrolo[1,2-a]quinoxalin-7-yl)acrylamide]	≤ 1000
O=C(O)c1ccc2c(c1)nc(NC1CCC(C(F)(F)F)CC1)c1cccn12 (centres unmarked) [I-18, 4-((4-(Trifluoromethyl)cyclohexyl)amino)pyrrolo[1,2-a]quinoxaline-7-carboxylic acid]	1000 to 5000
O=C(O)c1ccc2c(c1)nc(N1CCC3(CCCC3)CC1)c1cccn12 [I-8, 4-(8-Azaspiro[4.5]decan-8-yl)pyrrolo[1,2-a]quinoxaline-7-carboxylic acid]	≤ 1000
O=C(O)c1ccc2c(c1)nc(-c1ccc(SC(F)(F)F)cc1)c1cccn12 [I-194, 4-(4-((trifluoromethyl)thio)phenyl)pyrrolo[1,2-a]quinoxaline-7-carboxylic acid]	≤ 1000
O=C(O)c1ccc2c(c1)nc(OCc1ccc(C(F)(F)F)cc1)c1cccn12 [I-130, 4-((4-(Trifluoromethyl)benzyl)oxy)pyrrolo[1,2-a]quinoxaline-7-carboxylic acid]	> 10000
O=C(O)c1ccc2c(c1)nc(-c1ccc(C3(C(F)(F)F)CC3)cc1)c1cccn12 [I-196, 4-(4-(1-(trifluoromethyl)cyclopropyl)phenyl)pyrrolo[1,2-a]quinoxaline-7-carboxylic acid]	1000 to 5000
